Measured values published in patent US20240109855A1, “ANTI-QUORUM SENSING, ANTI-BIOFILM, AND INFLAMMATION ATTENUATING COMPOUNDS, COMPOSITIONS, AND METHODS OF USING SAME” (priority 2021, published 2024).
pIC50: −log10 of the molar value. Entries after “also recorded” stand apart in the source; their conditions may differ.

Legend:
P. aeruginosa [1] = assay: Motility of P. aeruginosa; type: cell-based; settings: data not shown
[2] = system: quorum sensing (CV026 and KYC55); assay: Quorum sensing inhibition, overall statement over the bio-reporter bacteria; type: cell-based
Outline: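 Compounds (20 μl of 40 mM acetonitrile stock) were spotted on TLC plates overlaid with reporter in soft agar: CV026 with 500 nM 3-oxo-C6 (purple pigment) or KYC55 with 5 nM 3-oxo-C8 and 60 μg/ml X-gal (blue pigment). After overnight incubation at 30 °C, the pigment-free inhibition zone was measured.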

lasR-lasI = assay: Bioluminescence QS reporter bacteria, lasRI; type: cell-based, P. aeruginosa; settings: Pseudomonas aeruginosa
Experimental: (§1) FIGS. 13A-13C include vertical bar graphs showing the dose response inhibition of QS by PL-18. Bioluminescence indicator bacteria containing the P. aeruginosa reporter genes rhlRI (13A) and lasRI (13B) were used. The reporter bacteria were incubated with and range of PL-18 concentrations or DMSO, together with (+AI) or without (−AI) the proper auto-inducer. Bioluminescence was recorded at 15 min intervals for 10 hrs at 37° C. The maximum signal in each group was normalized to the inducer's bioluminescence maximum signal with 0.5% DMSO. Mean±SD, One-way ANOVA followed by Dunett's multiple comparisons test was performed (p-value ***≤0.0002). N=9 (triplicate samples in three independent experiments). (13C) RT-qPCR of P. aeruginosa (PA01) QS genes. PA01 was co-incubated with two doses of PL-18 for seven hours, lysed and total RNA was extracted and converted to cDNA followed by target genes qPCR amplification. N≥16, Mean±SD. Two-way ANOVA, 95% confidence interval.
(§2) The inhibition of rhlR-rhlI system was slightly better than the inhibition of lasR-lasI. […] The relative transcription levels of QS genes lasR, lasI, rhlR and rhlI, was determined by RT-qPCR.

[3] = system: Agrobacterium tumefaciens (KYC55); assay: Quorum sensing inhibition test with bio-reporter KYC55 (TLC overlay); type: cell-based; for Degree of quorum sensing inhibition (QSI), KYC55: key: −: no inhibition; +: low inhibition; ++: medium inhibition; +++: strong inhibition
Outline: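 Compounds (40 mM in acetonitrile, 20 μl) were spotted on TLC and overlaid with soft agar reporter cultures, incubated overnight at 30 °C. CV026 was in LB with 500 nM 3-oxo-C6 (purple pigment), and KYC55 was in AT medium with 5 nM 3-oxo-C8 and 60 μg/ml X-gal (blue). Inhibition zone diameter was measured.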

P. aeruginosa [4] = assay: Toxicity to P. aeruginosa (CFU scoring, kinetic O.D.600nm); type: cell-based; settings: at the concentrations tested, data not shown
Experimental: The inventors also determined the toxicity of PL-18 to P. aeruginosa. Viability was tested by scoring CFUs of PL-18 treated P. aeruginosa cultures and bacterial growth was determined by incubation with PL-18 for kinetic O.D.600nm measurements.

NF-kB = assay: NF-kB-luciferase reporter gene assay in L428 cells; type: cell-based, human; settings: Table 6 summary; note: key: +: active; −: inactive
Outline: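 L428 cells stably carrying NF-kB-luciferase reporter (5×10^5/well, triplicate) exposed 2 h to compounds or DMSO. Lysate luminescence normalized to Bradford protein and to vehicle, reported as % NF-kB activation; mean+SD, ≥3 repeats.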

[5] = system: QS genes lasR, lasI, rhlR and rhlI; assay: RT-qPCR of P. aeruginosa (PA01) QS genes; type: cell-based; settings: PA01 co-incubated seven hours
Experimental: as §1, §2

[6] = system: gram-positive and gram-negative bacteria; assay: Antibacterial activity, overall statement (diffusion discs test); type: cell-based; settings: Table 6 summary; note: key: +: active; −: inactive
Outline: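 Compounds in acetonitrile at 40 mM, 20 μl dried onto filter paper discs, laid on lawns of B. subtilis, S. aureus, A. baumannii (LB agar) or S. sobrinus, S. mutans (BHI agar) from overnight cultures. Incubated overnight at 37° C; inhibition zone diameter measured.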

SMILES: COc1cc(/C=C/C(=O)N2CCC=CC2=O)cc(O)c1O [PL-18, Dihydroxy piperlongumine]
- Inhibition of motility (P. aeruginosa [1]): not shown to inhibit; also recorded: not found to inhibit
- QSI ([2]; Table 6 summary): +
- QSI activity overall, in words ([2]; running text): moderate
- pIC50 (lasR-lasI; read-out: IC50, lasR-lasI): 4.66
- inhibition at 160 µM (lasR-lasI; read-out: lasR-lasI inhibition): 76.8%
- Degree of quorum sensing inhibition (QSI), KYC55 ([3]; Table 2, piperlongumine derivatives): +++
- QSI activity against KYC55, in words ([3]; running text): strong quorum sensing inhibition
- Effect on P. aeruginosa growth (O.D.600nm) (P. aeruginosa [4]): did not affect P. aeruginosa growth
- Toxicity to P. aeruginosa (viability, CFUs) (P. aeruginosa [4]): non-toxic
- Anti-inflammatory (NF-kB): +
- Relative transcription levels of QS genes lasR, lasI, rhlR and rhlI [5]: strongly decreased
- Antibacterial [6]: −
